Test results as given in PubChem BioAssay (NCI).
Several values for one entry are separate records, joined by “and”; a condition that tells them apart may be missing. Equal entries are not always repeated.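 These data come from cells grown in 96-well plates and exposed to compound for 48 hours at five concentrations. The concentration for 50% growth inhibition is given as GI50. The concentration for full growth arrest is given as TGI.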

What was measured:
Test in all cases: NCI tumour cell line growth inhibition, 48 h
BT-549 breast = test system: BT-549 breast
K-562 leukemia = test system: K-562 leukemia
KM12 colon = test system: KM12 colon
LOX IMVI melanoma = test system: LOX IMVI melanoma
MALME-3M melanoma = test system: MALME-3M melanoma
NCI-H226 lung = test system: NCI-H226 lung
SF-295 CNS = test system: SF-295 CNS
SF-539 CNS = test system: SF-539 CNS
UACC-62 melanoma = test system: UACC-62 melanoma
UO-31 renal = test system: UO-31 renal

SMILES	GI50 (BT-549 breast)	TGI (BT-549 breast)	GI50 (K-562 leukemia)	TGI (K-562 leukemia)	GI50 (KM12 colon)	TGI (KM12 colon)	GI50 (LOX IMVI melanoma)	TGI (LOX IMVI melanoma)	GI50 (MALME-3M melanoma)	TGI (MALME-3M melanoma)	GI50 (NCI-H226 lung)	TGI (NCI-H226 lung)	GI50 (SF-295 CNS)	TGI (SF-295 CNS)	GI50 (SF-539 CNS)	TGI (SF-539 CNS)	GI50 (UACC-62 melanoma)	TGI (UACC-62 melanoma)	GI50 (UO-31 renal)	TGI (UO-31 renal)
NNC(=S)N/N=C/c1ccccn1	4.29 µM	> 100 µM	2.64 µM	> 100 µM	2.62 µM	> 100 µM	2.3 µM	> 100 µM	5.19 µM	> 100 µM	2.41 µM	13.8 µM	3.06 µM	> 100 µM	2.06 µM	9.32 µM	2.03 µM	14 µM	3.99 µM	> 100 µM
O=C1NC(=N[C@@H]2C[C@H]2c2ccccc2)S/C1=C\c1ccc2ncccc2c1	1.57 µM	6.49 µM	1.42 µM	> 25 µM	1.47 µM	> 12.7 µM	1.22 µM	12.1 µM	2.62 µM	12.1 µM	3.18 µM	10.2 µM	1.29 µM	> 12.8 µM	1.04 µM	5.07 µM	1.2 µM	5.61 µM	2.06 µM	6.78 µM
CCOC(=O)c1c2c(n(Cc3ccccc3)c1C)-c1nc[nH]c1C(=O)C2=O	17 µM	31.1 µM	3.08 µM	19.1 µM	13.9 µM	27.7 µM	14.9 µM	28.1 µM	11.3 µM	23.9 µM	20.9 µM	47.2 µM	15.3 µM	30.9 µM	17.7 µM	31.9 µM	–	–	14.7 µM	28.4 µM
CC[C@@]1(O)C(=O)OCc2c1cc1n(c2=O)Cc2cc3c(OC)cccc3nc2-1	–	> 39.8 µM	–	17.8 µM	–	5.86 µM	0.00444 µM	1.14 µM	–	1.89 µM	0.00806 µM	0.078 µM and 0.445 µM	0.00186 µM	2.65 µM	0.00654 µM	0.224 µM	0.00262 µM	0.0456 µM and 0.106 µM	0.00535 µM	–
N#C/C(=C\c1ccc([N+](=O)[O-])cc1)n1nnc2cc(F)c(F)cc21	1.77 µM	4.17 µM	3.14 µM	> 100 µM	2.02 µM	4.39 µM	1.55 µM	2.97 µM	2.08 µM	5.3 µM	1.97 µM	5.73 µM	2.08 µM	5.29 µM	1.74 µM	3.27 µM	1.66 µM	3.36 µM	1.25 µM	2.5 µM
COc1cc2cc(Oc3ccc(NC(=O)Nc4ccc(F)c(C(F)(F)F)c4)cc3)c(C)nc2cc1OCCN1CCOCC1	2.44 µM	8.46 µM	0.88 µM	10.3 µM	2.69 µM	10.6 µM	1.44 µM	2.86 µM	1.57 µM	3.24 µM	2.55 µM	13.2 µM	1.35 µM	4.22 µM	1.77 µM	3.44 µM	1.36 µM	4.24 µM	1.71 µM	10.6 µM
COC(=O)Nc1nc2ccc(C(=O)C3CC3)cc2[nH]1	1.01 µM	> 30.7 µM	0.417 µM	> 100 µM	0.283 µM	1.68 µM	0.72 µM	> 100 µM	0.392 µM	> 100 µM	0.423 µM	30.2 µM	0.248 µM	–	0.311 µM	3.06 µM	0.487 µM	> 100 µM	3.21 µM	> 63.1 µM
O=C(NCCNc1nccc(-c2c(-c3ccc(F)cc3)nc3sccn23)n1)Nc1cccc(C(F)(F)F)c1	13.2 µM	30.5 µM	6.14 µM	> 100 µM	6.43 µM	23.9 µM	5.36 µM	20.7 µM	–	–	2.38 µM	10.6 µM	4.28 µM	17.6 µM	11.5 µM	26.7 µM	4.75 µM	17 µM	2.94 µM	16 µM
COC(=O)CC12CC(NC(=O)c3csc([C@@H](C[C@H](C(C)C)N(C)C(=O)[C@@H](NC(=O)[C@H]4CCCCN4C)C(C)C)OC(C)=O)n3)(C1)C2	0.00575 µM and 0.022 µM	0.246 µM and 0.253 µM	0.00194 µM and 0.00333 µM	> 33.3 µM	0.00441 µM and 0.00939 µM	> 33.3 µM	0.00446 µM and 0.0121 µM	> 33.3 µM	0.00491 µM	–	0.00492 µM and 0.0217 µM	–	0.00327 µM and 0.00942 µM	> 33.3 µM	0.00289 µM and 0.00759 µM	0.0198 µM and 0.0269 µM	0.00325 µM and 0.00622 µM	> 33.3 µM	–	> 33.3 µM
COc1ncnn2ccc(-c3cnc4nc(C)n(Cc5nnc(C(C)F)o5)c4c3)c12 (stereo not given)	0.0585 µM	1.61 µM	0.163 µM	> 100 µM	0.116 µM	> 100 µM	0.144 µM	0.619 µM	0.264 µM	0.75 µM	0.156 µM	0.949 µM	0.326 µM	8.04 µM	0.218 µM	0.674 µM	–	–	–	–
O=C(O)c1cc(C(=O)C(=O)c2cc(C(=O)O)c(O)c3ccccc23)c2ccccc2c1O	–	> 100 µM	–	> 100 µM	–	> 100 µM	–	> 100 µM	–	> 100 µM	–	> 100 µM	–	> 100 µM	–	> 100 µM	–	> 100 µM	–	> 100 µM
CSc1nc(SC)c2c(C)cn(Cc3ccccc3)c2n1	–	> 100 µM	–	–	–	> 100 µM	–	> 100 µM	–	> 100 µM	–	> 100 µM	–	> 100 µM	–	> 100 µM	–	> 100 µM	–	> 100 µM
CCCC(c1cc(C(C)(C)C)c(O)cc1C)c1cc(C(C)(C)C)c(O)cc1C	–	22.7 µM	–	6.43 µM	–	11.1 µM	–	3.43 µM	–	9.78 µM	–	4.53 µM	–	6.11 µM	–	4.7 µM	–	4.95 µM	–	11.2 µM
COc1cccc(Nc2ncnn3ccc(CN4CC[C@@H](N)[C@H](O)C4)c23)c1	14.2 µM and > 4.68 µM	47.7 µM and > 7.41 µM	0.285 µM and 0.168 µM	10.2 µM and > 10 µM	3.31 µM and 2.88 µM	15.3 µM and > 10 µM	4.58 µM and 1.33 µM	21.1 µM and > 5.65 µM	17.6 µM and > 4.83 µM	35.2 µM and > 10 µM	2.66 µM and 1.38 µM	13 µM and > 8.94 µM	12.2 µM and > 5.6 µM	45.5 µM and > 10 µM	1.72 µM and 1.08 µM	13.5 µM and > 7.44 µM	20.4 µM and > 3.85 µM	41.3 µM and > 9.23 µM	0.145 µM and 0.132 µM	5.02 µM and 4.12 µM
NS(=O)(=O)c1ccc(N=Nc2c(O)[nH]c3cccc(CCc4ccncc4)c23)cc1	> 25 µM	> 25 µM	> 25 µM	> 25 µM	> 25 µM	> 25 µM	> 25 µM	> 25 µM	> 25 µM	> 25 µM	> 25 µM	> 25 µM	> 25 µM	> 25 µM	> 25 µM	> 25 µM	> 25 µM	> 25 µM	> 25 µM	> 25 µM
Nc1n[nH]c2ccc([C@H]3[C@@H]4C5CCC(C5)[C@@H]4c4c(ccc5[nH]ncc45)N3S(=O)(=O)C3CC3)cc12 (stereo not given in full)	0.34 µM	5.73 µM	0.115 µM	–	0.199 µM	6.32 µM	0.303 µM	6.45 µM	0.326 µM	40.9 µM	0.441 µM	10.1 µM	0.136 µM	1.32 µM	0.135 µM	0.484 µM	0.137 µM	5.54 µM	0.298 µM	29.2 µM
Cc1cc(S(=O)(=O)Nc2n[nH]c(-c3ccc(Cl)cc3)c2C#N)c(S)cc1Cl	> 100 µM	> 100 µM	> 100 µM	> 100 µM	> 100 µM	> 100 µM	> 100 µM	> 100 µM	> 100 µM	> 100 µM	> 100 µM	> 100 µM	> 100 µM	> 100 µM	> 100 µM	> 100 µM	> 100 µM	> 100 µM	> 100 µM	> 100 µM
OC1CCC(COC(c2ccccc2)(c2ccccc2)c2ccccc2)O1 (stereo not given)	–	40.6 µM	–	41.1 µM	–	34.3 µM	–	34.3 µM	–	42.3 µM	–	45.4 µM	–	31.8 µM	–	32.5 µM	–	33.8 µM	–	33.2 µM
O=C(NC(=S)Nc1ccc(-c2nc3ccccc3[nH]2)cc1)c1ccc2ccccc2c1	2.2 µM	6.73 µM	13.3 µM	> 100 µM	6.49 µM	> 100 µM	2.14 µM	4.74 µM	2.14 µM	5.54 µM	4.36 µM	25.4 µM	–	–	2.07 µM	4.53 µM	4.06 µM	> 100 µM	1.92 µM	3.65 µM
CCOC(=O)Nc1nc(-c2ccccc2)c(C)s1	–	> 100 µM	–	> 100 µM	–	> 100 µM	–	> 100 µM	–	> 100 µM	–	> 100 µM	–	> 100 µM	–	> 100 µM	–	> 100 µM	–	> 100 µM
Cc1cccc2c1NC(=O)[C@@H](NC(=O)[C@H](CCC(F)(F)F)[C@H](CCC(F)(F)F)C(N)=O)N=C2c1cccc(F)c1	16.2 µM	66.1 µM	> 100 µM	> 100 µM	> 100 µM	> 100 µM	64.8 µM	> 100 µM	50 µM	> 100 µM	17 µM	73.4 µM	25.8 µM	> 100 µM	18.4 µM	41.8 µM	28.2 µM	> 100 µM	> 100 µM	> 100 µM
CCOC(=O)Nc1ccc2c3c(cccc13)-c1ccccc1-2	> 100 µM	> 100 µM	4.12 µM	> 100 µM	2.32 µM	> 100 µM	4.77 µM	> 100 µM	–	–	> 100 µM	> 100 µM	2.82 µM	7.87 µM	5.65 µM	> 100 µM	3.71 µM	> 100 µM	2.59 µM	> 100 µM
CC12OC(C(=O)C13CC3)C1C(=O)c3cccc(O)c3C(=O)C12 (stereo not given)	19.1 µM	58.1 µM	–	–	13.8 µM	38.1 µM	5.1 µM	> 100 µM	5.31 µM	14 µM	22.9 µM	78.5 µM	2.68 µM	22.6 µM	5.36 µM	> 56.1 µM	5.23 µM	37.2 µM	23.1 µM	> 100 µM
Oc1c(CCl)cc(Cl)cc1Cc1cc(Cl)cc(Cc2cc(Cl)cc(CCl)c2O)c1O	2.71 µM	11.5 µM	1.99 µM	13.4 µM	3.43 µM	13.5 µM	3.27 µM	12.2 µM	3.32 µM	14.7 µM	4.11 µM	21.1 µM	3.66 µM	34.7 µM	4.16 µM	18.2 µM	2.9 µM	11.1 µM	2.92 µM	11.8 µM
Nc1ncnc2occ(-c3ccc(NC(=O)Nc4cc(C(F)(F)F)ccc4F)cc3)c12	6.83 µM and 3.42 µM	17.4 µM and 9.93 µM	2.18 µM and 0.972 µM	19 µM and > 25 µM	0.133 µM and 0.115 µM	4.81 µM and 3.08 µM	4.83 µM and 2.69 µM	14.9 µM and 10.2 µM	7.15 µM and 4.35 µM	17.6 µM and 12 µM	0.717 µM and 0.929 µM	18.7 µM and 7.01 µM	4.97 µM and 3.23 µM	16.3 µM and 9.43 µM	2.78 µM and 1.09 µM	8.79 µM and 6.45 µM	4.29 µM and 2.33 µM	9.76 µM and 5.8 µM	4.72 µM and 1.48 µM	14.1 µM and 7.88 µM
O=P1(O)c2ccccc2CSCc2ccccc21	–	> 100 µM	–	> 100 µM	–	> 100 µM	–	> 100 µM	–	–	–	> 100 µM	–	> 100 µM	–	> 100 µM	–	> 100 µM	–	> 100 µM
CCOC(=O)c1cc2c(OC)cc(OC)cc2oc1=O	–	> 100 µM	–	> 100 µM	–	–	–	> 100 µM	–	> 100 µM	–	> 100 µM	–	> 100 µM	–	> 100 µM	–	> 100 µM	–	–
Cc1ccc([I+]c2ccc(C)cc2)cc1	5.28 µM	75.7 µM	–	–	4.27 µM	52.2 µM	2.33 µM	> 100 µM	1.97 µM	44.8 µM	17.8 µM	> 100 µM	1.86 µM	8.74 µM	16.4 µM	> 100 µM	8.86 µM	> 100 µM	21.3 µM	> 100 µM
